US11945768B1, “8-(3-flurobenzylideneamino)naphthalene-1,3-disulfonic acid as an antioxidant compound” (KING FAISAL UNIVERSITY, priority 2023, dated 2024)

Assay: DPPH radical scavenging antioxidant test (in vitro)
Type: biochemical
Settings: 517 nm; for Inhibition (radical scavenging inhibition): 0.2 mL DPPH (0.75 mM), compound 3 μM in ethanol, 30 minutes incubation in the dark
Method: The antioxidant properties of the 8-(3-flurobenzylideneamino)naphthalene-1,3-disulfonic acid compound were studied by adding 0.2 mL DPPH (0.75 mM)) 8-(3-flurobenzylideneamino)naphthalene-1,3-disulfonic acid (III) (3 μM) in ethanol. After 30 minutes of incubation in the dark, the absorbance was read against a blank at 517 nm. Ascorbic acid (vitamin C) was used as standard antioxidants (positive control). A blank sample was prepared by 0.2 ml of DPPH in 3 mL ethanol. A negative control sample was run using ethanol instead of the sample. The radical scavenging inhibition was calculated using the following equation: […]
The antioxidant activity for the synthesized compound is listed in Table 1, using Vitamin C as a reference.

## O=S(=O)(O)c1cc(S(=O)(=O)O)c2c(/N=C/c3cccc(F)c3)cccc2c1 [Product III, 8-(3-flurobenzylideneamino)naphthalene-1,3-disulfonic acid]
  Inhibition (radical scavenging inhibition): 52%
DPPH in vitro test, vitamin C as positive control
  antioxidant potential in DPPH test compared to vitamin C (in words): high potential as an antioxidant compared to vitamin C

## O=C1O[C@H]([C@@H](O)CO)C(O)=C1O [vit c, Ascorbic acid, reference compound]
  Inhibition (radical scavenging inhibition): 74%
